Data on five molecules can be found in ChEMBL document CHEMBL1201862, “PubChem BioAssay data set” (2004).

The target in assay [1] is Serine/threonine-protein phosphatase PP1-alpha catalytic subunit (Homo sapiens, UniProt P62136). The assay can be described thus: inhibition of protein phosphatase 1 activity – biochemical, fluorescence, dose response (AID 2394).
Assay [2] deals with T1, Serine/threonine-protein phosphatase (Homo sapiens, UniProt Q9BPW0).
T1 sequence (Q9BPW0 whole entry): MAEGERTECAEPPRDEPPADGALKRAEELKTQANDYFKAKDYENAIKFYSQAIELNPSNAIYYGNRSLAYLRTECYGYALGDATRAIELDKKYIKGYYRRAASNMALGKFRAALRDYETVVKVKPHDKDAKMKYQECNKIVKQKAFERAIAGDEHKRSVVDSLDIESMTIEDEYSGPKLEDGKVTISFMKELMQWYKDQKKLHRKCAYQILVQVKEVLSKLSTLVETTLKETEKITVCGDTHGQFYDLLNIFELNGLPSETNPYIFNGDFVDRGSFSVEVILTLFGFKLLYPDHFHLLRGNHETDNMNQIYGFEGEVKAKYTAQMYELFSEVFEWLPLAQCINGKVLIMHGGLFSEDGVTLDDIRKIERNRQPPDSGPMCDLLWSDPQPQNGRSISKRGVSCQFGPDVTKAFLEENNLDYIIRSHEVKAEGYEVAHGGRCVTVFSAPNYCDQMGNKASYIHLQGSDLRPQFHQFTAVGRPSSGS
In words: inhibition of protein phosphatase 5 activity – biochemical, fluorescence, dose response (AID 2395).

Assay [3] addresses Beta Lactamase (Pseudomonas aeruginosa, UniProt Q932Y6). In words: BLA reporter interference, concentration series – BLA reporter cells, FRET fluorescence, artefact control for TLR9-MyD88 binding inhibitor project, dose response (AID 588341).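 Further: cell based assay in CHO-K1 cells stably expressing beta-lactamase.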 It counts as cell-based.
The nature of assay [4]: reduction of Shn3 3'UTR-driven luciferase in osteoblasts – cell-based, Clone20 osteoblasts, firefly luciferase, cherry-picked, dose response (AID 624132).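 Further: firefly luciferase luminescence from reporter carrying the Shn3 3'UTR in osteoblasts.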 Format: functional.
Assay [5] addresses Fatty acid synthase (Homo sapiens, UniProt P49327). In words: inhibition of human FAS-TE enzyme activity – biochemical, endpoint fluorescence intensity, uHTS hits, dose response (AID 624327).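 Further: fluorescence from hydrolysis of an O-methyl fluorescein acyl ester substrate by the enzyme.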 It counts as functional.
Assay [6] addresses T2, Ubiquitin-conjugating enzyme E2 N (Homo sapiens, UniProt P61088).
T2 sequence (P61088 whole entry): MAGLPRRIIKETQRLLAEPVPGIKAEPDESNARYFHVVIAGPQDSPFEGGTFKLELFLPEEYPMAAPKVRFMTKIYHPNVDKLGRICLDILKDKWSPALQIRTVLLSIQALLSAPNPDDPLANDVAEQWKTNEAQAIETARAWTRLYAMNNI
Format: functional.

Assay [7] is described as follows: blockers of HIV-1 ZM109 envelope-driven cell-cell fusion – HeLa effector, CEM target cells, luciferase, cherry-pick, dose response (AID 652058).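 Further: luciferase signal from HIV-1 Env mediated cell-cell fusion of effector and target cells.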 It counts as functional, cell-based.
Assay [8] can be described thus: cells.
In assay [9] the target is T3, Short transient receptor potential channel 4 (Mus musculus, UniProt Q9QUQ5).
T3 sequence (Q9QUQ5 whole entry): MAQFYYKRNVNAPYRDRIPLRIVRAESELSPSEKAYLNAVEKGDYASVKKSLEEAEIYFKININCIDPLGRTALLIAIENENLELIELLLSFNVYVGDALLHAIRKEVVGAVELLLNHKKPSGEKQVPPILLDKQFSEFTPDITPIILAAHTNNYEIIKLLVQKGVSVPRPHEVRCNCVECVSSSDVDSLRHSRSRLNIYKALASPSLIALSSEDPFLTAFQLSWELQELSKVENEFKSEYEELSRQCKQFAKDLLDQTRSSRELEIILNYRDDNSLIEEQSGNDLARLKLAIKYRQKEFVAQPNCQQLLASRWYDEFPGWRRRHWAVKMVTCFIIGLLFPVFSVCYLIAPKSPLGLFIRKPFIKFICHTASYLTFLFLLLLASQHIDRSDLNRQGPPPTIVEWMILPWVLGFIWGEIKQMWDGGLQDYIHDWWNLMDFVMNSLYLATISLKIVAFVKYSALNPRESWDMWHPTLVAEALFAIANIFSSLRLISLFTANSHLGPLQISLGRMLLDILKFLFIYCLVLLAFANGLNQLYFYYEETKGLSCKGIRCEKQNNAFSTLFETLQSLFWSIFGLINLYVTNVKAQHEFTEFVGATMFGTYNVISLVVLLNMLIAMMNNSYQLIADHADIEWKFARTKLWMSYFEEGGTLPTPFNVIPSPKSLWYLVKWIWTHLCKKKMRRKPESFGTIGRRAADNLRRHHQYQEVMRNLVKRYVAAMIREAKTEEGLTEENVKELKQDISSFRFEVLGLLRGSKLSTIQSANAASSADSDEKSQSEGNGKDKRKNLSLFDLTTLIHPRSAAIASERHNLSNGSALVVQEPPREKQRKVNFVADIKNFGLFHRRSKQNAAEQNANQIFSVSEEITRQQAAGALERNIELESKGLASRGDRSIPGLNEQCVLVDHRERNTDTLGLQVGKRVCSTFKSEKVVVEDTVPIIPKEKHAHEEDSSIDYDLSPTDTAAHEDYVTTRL
The assay can be described thus: block of DAMGO-driven TRPC4 calcium entry – cell-based, HEK293 TRPC4/mu-opioid, Fluo-4 calcium, dose response (AID 434942).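 Further: potency of inhibitors blocking the TRPC4 calcium response.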 Format: functional.

The target of assay [10] is T4, Protein skinhead-1 (Caenorhabditis elegans, UniProt P34707).
T4 sequence (P34707 whole entry): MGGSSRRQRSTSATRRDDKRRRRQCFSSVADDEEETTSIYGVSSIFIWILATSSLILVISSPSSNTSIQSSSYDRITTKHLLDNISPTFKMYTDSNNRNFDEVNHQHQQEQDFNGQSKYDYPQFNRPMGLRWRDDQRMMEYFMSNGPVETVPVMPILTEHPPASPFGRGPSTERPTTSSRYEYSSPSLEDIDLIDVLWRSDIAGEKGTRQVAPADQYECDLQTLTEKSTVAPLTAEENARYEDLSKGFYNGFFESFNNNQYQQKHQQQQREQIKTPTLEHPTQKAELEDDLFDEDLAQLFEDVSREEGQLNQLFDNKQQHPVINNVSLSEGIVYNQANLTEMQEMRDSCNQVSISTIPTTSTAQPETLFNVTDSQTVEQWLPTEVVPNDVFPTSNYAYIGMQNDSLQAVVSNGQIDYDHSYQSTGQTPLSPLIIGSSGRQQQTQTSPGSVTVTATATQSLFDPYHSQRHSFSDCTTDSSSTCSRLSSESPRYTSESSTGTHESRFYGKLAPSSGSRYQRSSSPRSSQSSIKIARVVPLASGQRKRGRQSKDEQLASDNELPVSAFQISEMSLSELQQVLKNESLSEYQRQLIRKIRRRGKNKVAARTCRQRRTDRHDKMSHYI
Format: functional.

The target of assay [11] is Peroxisome proliferator-activated receptor gamma/Nuclear receptor coactivator 3 (Homo sapiens, UniProt P37231). Format: functional.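 Further: agonist potency for raising coactivator recruitment to the receptor.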
Sequence of Peroxisome proliferator-activated receptor gamma/Nuclear receptor coactivator 3 (P37231 whole entry): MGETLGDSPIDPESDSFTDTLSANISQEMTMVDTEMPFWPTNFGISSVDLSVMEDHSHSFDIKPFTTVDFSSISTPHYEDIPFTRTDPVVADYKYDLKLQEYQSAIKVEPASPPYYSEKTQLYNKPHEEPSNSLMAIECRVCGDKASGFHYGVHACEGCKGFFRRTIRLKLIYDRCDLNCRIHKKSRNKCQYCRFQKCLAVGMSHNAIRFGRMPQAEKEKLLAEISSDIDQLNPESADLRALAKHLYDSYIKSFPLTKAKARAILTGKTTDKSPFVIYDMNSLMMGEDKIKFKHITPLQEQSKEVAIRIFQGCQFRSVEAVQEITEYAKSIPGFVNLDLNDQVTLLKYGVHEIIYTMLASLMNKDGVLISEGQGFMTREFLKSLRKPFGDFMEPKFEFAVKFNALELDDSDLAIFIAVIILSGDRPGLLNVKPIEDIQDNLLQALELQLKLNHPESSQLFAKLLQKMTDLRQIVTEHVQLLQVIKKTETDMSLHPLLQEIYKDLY
Sequence of Peroxisome proliferator-activated receptor gamma/Nuclear receptor coactivator 3 (Q9Y6Q9 whole entry, further chain): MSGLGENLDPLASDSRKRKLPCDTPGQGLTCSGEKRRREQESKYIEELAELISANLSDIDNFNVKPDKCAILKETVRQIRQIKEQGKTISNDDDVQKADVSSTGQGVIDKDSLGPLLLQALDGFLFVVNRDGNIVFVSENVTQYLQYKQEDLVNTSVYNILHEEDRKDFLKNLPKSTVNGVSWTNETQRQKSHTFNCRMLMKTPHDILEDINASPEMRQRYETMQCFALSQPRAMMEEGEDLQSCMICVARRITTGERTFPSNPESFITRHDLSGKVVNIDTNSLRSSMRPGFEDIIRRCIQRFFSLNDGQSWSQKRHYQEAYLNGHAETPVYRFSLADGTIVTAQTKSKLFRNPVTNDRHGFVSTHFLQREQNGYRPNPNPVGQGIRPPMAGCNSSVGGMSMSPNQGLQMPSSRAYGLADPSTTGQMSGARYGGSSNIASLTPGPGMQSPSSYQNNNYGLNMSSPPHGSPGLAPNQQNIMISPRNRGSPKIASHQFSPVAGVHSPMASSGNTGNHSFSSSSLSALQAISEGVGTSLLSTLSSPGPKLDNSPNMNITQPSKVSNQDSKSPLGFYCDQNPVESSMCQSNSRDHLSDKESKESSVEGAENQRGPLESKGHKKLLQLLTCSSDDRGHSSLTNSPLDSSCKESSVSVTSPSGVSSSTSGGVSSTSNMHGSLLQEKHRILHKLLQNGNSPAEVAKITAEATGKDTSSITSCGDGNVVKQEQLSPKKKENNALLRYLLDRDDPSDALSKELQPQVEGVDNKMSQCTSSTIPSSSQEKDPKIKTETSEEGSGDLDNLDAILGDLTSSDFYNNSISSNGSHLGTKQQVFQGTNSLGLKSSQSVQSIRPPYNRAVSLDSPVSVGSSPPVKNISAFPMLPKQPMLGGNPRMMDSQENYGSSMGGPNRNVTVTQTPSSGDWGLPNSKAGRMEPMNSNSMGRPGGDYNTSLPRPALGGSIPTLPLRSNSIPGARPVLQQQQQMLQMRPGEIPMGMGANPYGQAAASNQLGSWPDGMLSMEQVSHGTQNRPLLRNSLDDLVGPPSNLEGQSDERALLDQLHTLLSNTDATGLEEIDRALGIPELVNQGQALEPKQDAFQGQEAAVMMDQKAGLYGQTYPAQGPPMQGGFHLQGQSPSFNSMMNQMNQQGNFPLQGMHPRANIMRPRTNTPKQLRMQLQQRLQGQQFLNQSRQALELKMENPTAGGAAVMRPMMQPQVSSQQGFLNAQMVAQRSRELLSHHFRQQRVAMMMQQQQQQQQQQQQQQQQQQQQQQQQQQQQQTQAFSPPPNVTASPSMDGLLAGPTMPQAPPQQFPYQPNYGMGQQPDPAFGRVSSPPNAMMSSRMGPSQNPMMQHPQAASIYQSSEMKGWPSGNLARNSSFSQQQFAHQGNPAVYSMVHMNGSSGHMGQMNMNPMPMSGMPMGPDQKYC
Assay [12] in a line: viability of PTEN-deleted HCT116 cells – cell-based, HCT116 PTEN knockout, dose response (AID 1047).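 Further: HCT116 colon tumor cells with PTEN knocked out; cells exposed to compound for 60 hours before readout; potency for loss of cell viability measured by luminescence.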 It counts as functional.
Assay [13] in a line: viability of HCT116 lacking mutant beta-catenin – cell-based, human colon tumor, dose response (AID 1045).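 Further: HCT116 colon tumor cells with beta catenin knocked out; cells exposed to compound for 60 hours.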 It counts as functional.

Activity calls are given as the source filed them. Where only a bound is given, the exact number is not on record here.

Sequence of Serine/threonine-protein phosphatase PP1-alpha catalytic subunit (P62136 whole entry): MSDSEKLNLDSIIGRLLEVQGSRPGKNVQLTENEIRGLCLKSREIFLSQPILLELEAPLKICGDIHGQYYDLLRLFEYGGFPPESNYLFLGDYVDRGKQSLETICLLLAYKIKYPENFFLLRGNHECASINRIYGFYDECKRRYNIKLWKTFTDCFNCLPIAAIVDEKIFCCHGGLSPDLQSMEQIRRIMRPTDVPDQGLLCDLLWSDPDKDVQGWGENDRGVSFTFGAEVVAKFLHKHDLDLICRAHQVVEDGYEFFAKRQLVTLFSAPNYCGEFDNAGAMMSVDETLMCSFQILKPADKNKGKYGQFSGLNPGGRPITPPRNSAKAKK
Sequence of Beta Lactamase (Q932Y6 whole entry): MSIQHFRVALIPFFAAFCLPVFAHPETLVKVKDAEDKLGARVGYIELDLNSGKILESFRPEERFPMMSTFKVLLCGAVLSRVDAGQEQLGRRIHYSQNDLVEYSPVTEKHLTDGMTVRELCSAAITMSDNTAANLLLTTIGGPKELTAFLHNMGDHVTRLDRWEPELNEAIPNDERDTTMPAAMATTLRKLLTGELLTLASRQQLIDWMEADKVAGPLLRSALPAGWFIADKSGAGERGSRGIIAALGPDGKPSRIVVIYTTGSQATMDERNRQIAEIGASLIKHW
Sequence of Fatty acid synthase (P49327 whole entry): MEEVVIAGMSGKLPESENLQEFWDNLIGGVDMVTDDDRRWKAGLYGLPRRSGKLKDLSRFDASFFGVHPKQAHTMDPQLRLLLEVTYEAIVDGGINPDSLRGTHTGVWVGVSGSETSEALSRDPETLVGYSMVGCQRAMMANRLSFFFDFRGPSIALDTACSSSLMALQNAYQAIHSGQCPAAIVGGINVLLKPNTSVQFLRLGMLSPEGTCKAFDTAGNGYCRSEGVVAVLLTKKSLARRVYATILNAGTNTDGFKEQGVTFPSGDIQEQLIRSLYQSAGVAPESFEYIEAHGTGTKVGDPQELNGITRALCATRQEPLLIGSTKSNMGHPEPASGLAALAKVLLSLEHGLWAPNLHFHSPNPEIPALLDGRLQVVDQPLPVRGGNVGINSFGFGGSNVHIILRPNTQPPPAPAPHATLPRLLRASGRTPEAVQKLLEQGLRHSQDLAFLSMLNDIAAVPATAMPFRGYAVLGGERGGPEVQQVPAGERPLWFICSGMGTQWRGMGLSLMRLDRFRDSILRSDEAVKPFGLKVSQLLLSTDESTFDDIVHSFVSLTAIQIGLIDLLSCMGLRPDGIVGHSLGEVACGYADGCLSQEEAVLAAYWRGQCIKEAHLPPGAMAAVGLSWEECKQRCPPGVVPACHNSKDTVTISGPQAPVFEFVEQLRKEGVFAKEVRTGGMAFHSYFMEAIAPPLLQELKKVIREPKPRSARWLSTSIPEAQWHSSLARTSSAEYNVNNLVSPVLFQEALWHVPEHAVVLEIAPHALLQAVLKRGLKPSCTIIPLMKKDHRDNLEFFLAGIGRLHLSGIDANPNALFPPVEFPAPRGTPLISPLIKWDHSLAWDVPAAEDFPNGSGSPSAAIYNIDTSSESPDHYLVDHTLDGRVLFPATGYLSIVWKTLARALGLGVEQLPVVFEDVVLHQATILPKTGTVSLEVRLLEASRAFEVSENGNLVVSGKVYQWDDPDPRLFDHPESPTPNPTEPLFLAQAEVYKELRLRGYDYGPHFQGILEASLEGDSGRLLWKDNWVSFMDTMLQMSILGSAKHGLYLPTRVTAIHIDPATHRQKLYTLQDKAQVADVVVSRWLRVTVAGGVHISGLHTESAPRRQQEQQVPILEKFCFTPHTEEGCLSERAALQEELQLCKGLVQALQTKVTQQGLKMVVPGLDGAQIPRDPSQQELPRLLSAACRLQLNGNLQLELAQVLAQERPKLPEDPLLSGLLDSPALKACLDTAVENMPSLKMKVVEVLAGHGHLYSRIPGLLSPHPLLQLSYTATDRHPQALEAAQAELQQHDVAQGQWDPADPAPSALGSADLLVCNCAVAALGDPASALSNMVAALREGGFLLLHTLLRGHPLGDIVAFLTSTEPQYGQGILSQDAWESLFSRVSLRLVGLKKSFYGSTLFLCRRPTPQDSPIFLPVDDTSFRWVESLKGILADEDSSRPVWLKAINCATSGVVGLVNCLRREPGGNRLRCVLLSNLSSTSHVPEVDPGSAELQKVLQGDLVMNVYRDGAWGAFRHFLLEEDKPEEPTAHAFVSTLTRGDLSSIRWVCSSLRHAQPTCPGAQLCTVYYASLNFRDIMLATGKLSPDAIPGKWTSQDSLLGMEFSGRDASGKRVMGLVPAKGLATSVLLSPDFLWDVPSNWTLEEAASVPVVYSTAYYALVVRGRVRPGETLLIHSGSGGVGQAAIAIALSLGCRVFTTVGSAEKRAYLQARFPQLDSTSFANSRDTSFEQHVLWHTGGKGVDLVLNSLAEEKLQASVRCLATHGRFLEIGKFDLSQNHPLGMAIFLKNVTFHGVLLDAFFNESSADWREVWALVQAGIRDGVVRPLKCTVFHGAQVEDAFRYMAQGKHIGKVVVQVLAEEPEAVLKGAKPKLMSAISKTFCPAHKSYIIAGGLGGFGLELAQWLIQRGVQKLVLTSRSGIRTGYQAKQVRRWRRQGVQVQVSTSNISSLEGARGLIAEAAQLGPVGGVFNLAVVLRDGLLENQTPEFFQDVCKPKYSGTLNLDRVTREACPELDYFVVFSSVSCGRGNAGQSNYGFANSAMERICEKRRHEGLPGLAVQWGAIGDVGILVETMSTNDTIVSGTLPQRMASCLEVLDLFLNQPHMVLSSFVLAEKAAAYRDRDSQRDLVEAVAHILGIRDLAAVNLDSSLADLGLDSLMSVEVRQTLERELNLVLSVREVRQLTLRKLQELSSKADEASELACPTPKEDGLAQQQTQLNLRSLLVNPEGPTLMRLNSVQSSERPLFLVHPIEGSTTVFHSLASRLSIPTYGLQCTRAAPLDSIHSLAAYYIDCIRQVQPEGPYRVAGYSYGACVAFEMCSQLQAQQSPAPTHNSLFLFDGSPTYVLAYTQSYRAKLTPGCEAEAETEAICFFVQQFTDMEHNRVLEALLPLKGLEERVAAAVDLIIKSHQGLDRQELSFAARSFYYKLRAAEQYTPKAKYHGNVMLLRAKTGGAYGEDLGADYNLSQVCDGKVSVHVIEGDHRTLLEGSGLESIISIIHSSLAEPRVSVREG

A word on the IC50: it is the concentration that inhibits the measured activity by half. With `O=C(NC1(O)C(=O)c2ccccc2C1=O)c1ccccc1`, the 50% inhibitory concentration (IC50) was 49 µM (not active) in assay [1] and > 0.828 µM (active) in [2].

By AC50 is commonly meant the midpoint of the concentration-response curve, whichever way the signal moves. As to `O=C(Nc1ccccc1Cl)/C(Cl)=C(\Cl)[S+]([O-])c1ccccc1` (stereo not drawn), the IC50 was > 5.53 µM (active) in [3] and 4.66 µM (active) in assay [5]. For the same molecule, the AC50 in assay [4] is 0.438 µM (active).

For orientation: EC50 means the midpoint of the concentration-response curve. Regarding `CCCCCCCCCCCCCCCCn1cc[n+](C)c1`, the IC50 in [6] was > 20 µM (inactive). Besides, the AC50 in assay [7] is 23.5 µM (active). In addition, the EC50 in assay [8] was 0.44 µM (active).

With `Cc1ccc(C)c(S(=O)(=O)/N=C2\C=C(NS(=O)(=O)c3ccccc3)C(=O)c3ccccc32)c1`, the 50% effective concentration (EC50) in [9] was 6.68 µM (active). Also, the IC50 in assay [10] was > 100 µM (inactive).

For `Cc1cc(C)nc(/N=c2/ssnc2Cl)c1`, the results for the EC50 in assay [11], in assay [12] and in assay [13] were > 79.4 µM (not active), 52.3 µM (active) and 25.8 µM (active), respectively.
